Measured values taken from patent US8222404B2, “[1,2,4]Thiadiazin-3-yl acetic acid compound and methods of making the acetic acid compound” (Anadys Pharmaceuticals, Inc., priority 2008, dated 2012).

System: HCV Huh-luc/neo-ET replicon cells
Assay: Luciferase-Based HCV Replicon Assay (EC50 (1b))
Format: cell-based
Conditions: 72 hours exposure, luciferase activity
Method: Luciferase-Based HCV Replicon Assay Protocol (EC50 (1b))
The cell culture component of the assay was performed essentially as described by Bartenschlager et al., Hepatology 2002, 35, 694-703, wherein exponentially growing HCV Huh-luc/neo-ET replicon cells were seeded at 6×10^3 cells/well in 96 well assay plate. 24 hours later the cells were treated with various concentrations of compound in triplicate. After 72 hours exposure to the compound, the luciferase activity in the wells was determined using Bright-Glo reagent (Promega, Madison, Wis.) with a luminometer (Wallac 1420 Multilabel HTS Counter Victor 2). The background control was replicon cells treated with 100 nM BILN-2061, an inhibitor of the HCV protease. % Inhibition was determined for each compound concentration in relation to the negative (no compound) control to calculate the EC50 (1b).

| SMILES | EC50 (Hepatitis C virus) | EC50 |
| --- | --- | --- |
| CS(=O)(=O)NCc1csc2c1S(=O)(=O)N=C(C1=C(O)C3CCCCCC3N(Cc3ccc(F)cc3F)C1=O)N2 (racemic) [Example 122, (rac-cis)-N-{3-[1-(2,4-Difluoro-benzyl)-4-hydroxy-2-oxo-2,4a,5,6,7,8,9,9a-octahydro-1H-cyclohepta[b]pyridin-3-yl]-1,1-dioxo-1,4-dihydro-1λ^6-thieno[2,3-e][1,2,4]thiadiazin-7-ylmethyl}-methanesulfonamide] | > 1000 nM |  |
| COc1cc(CN2C(=O)C(C3=NS(=O)(=O)c4c(CNS(C)(=O)=O)csc4N3)=C(O)[C@@H]3C4CCC(CC4)[C@@H]32)ccc1F [Example 36, N-{3-[(2S,7R)-3-(4-Fluoro-3-methoxy-benzyl)-6-hydroxy-4-oxo-3-aza-tricyclo[6.2.2.0^2,7]dodec-5-en-5-yl]-1,1-dioxo-1,4-dihydro-1λ^6-thieno[2,3-e][1,2,4]thiadiazin-7-ylmethyl}-methanesulfonamide] | ≤ 5 nM |  |
| CC1(CCN2C(=O)C(C3=NS(=O)(=O)c4c(CNS(C)(=O)=O)csc4N3)=C(O)C3C4CCC(CC4)C32)CC1 (stereo not drawn) [Example 109, N-(3-{6-Hydroxy-3-[2-(1-methyl-cyclopropyl)-ethyl]-4-oxo-3-aza-tricyclo[6.2.2.0^2,7]dodec-5-en-5-yl]-1,1-dioxo-1,4-dihydro-1λ^6-thieno[2,3-e][1,2,4]thiadiazin-7-ylmethyl)-methanesulfonamide] | 5 to 20 nM |  |
| CS(=O)(=O)NCc1csc2c1S(=O)(=O)N=C(C1=C(O)[C@@H]3CCC[C@@H]3N(Cc3ccc(F)c(Cl)c3)C1=O)N2 [Example 113, (4aR,7aS)-N-{3-[1-(3-Chloro-4-fluoro-benzyl)-4-hydroxy-2-oxo-2,4a,5,6,7,7a-hexahydro-1H-[1]pyrindin-3-yl]-1,1-dioxo-1,4-dihydro-1λ^6-thieno[2,3-e][1,2,4]thiadiazin-7-ylmethyl}-methanesulfonamide] | 20 to 100 nM |  |
| CS(=O)(=O)NCc1csc2c1S(=O)(=O)N=C(C1=C(O)[C@@H]3C4CCC(CC4)[C@@H]3N(Cc3ccc(F)c(F)c3)C1=O)N2 [Example 92, N-{3-[(2S,7R)-3-(3,4-Difluoro-benzyl)-6-hydroxy-4-oxo-3-aza-tricyclo[6.2.2.0^2,7]dodec-5-en-5-yl]-1,1-dioxo-1,4-dihydro-1λ^6-thieno[2,3-e][1,2,4]thiadiazin-7-ylmethyl}-methanesulfonamide] | ≤ 5 nM |  |
| CS(=O)(=O)NCc1csc2c1S(=O)(=O)N=C(C1=C(O)C3C4CCC(C5CC54)C3N(Cc3ccc(F)cc3)C1=O)N2 (racemic) [Example 23, (rac-di-exo)-N-{3-[3-(4-Fluoro-benzyl)-6-hydroxy-4-oxo-3-aza-tetracyclo[6.3.2.0^2,7.0^9,11]tridec-5-en-5-yl]-1,1-dioxo-1,4-dihydro-1λ^6-thieno[2,3-e][1,2,4]thiadiazin-7-ylmethyl}-methanesulfonamide] |  | ≤ 5 nM |
| CC(C)(C)CCN1C(=O)C(C2=NS(=O)(=O)c3c(CNS(C)(=O)=O)csc3N2)=C(O)[C@@H]2[C@H]3CC[C@H](C3)[C@@H]21 [Example 67, N-{3-[(1R,2S,7R,8S)-3-(3,3-Dimethyl-butyl)-6-hydroxy-4-oxo-3-aza-tricyclo[6.2.1.0^2,7]undec-5-en-5-yl]-1,1-dioxo-1,4-dihydro-1λ^6-thieno[2,3-e][1,2,4]thiadiazin-7-ylmethyl}-methanesulfonamide] | 5 to 20 nM |  |
| CC(C)CCC1(C)CN(C2CC2)C(=O)C(C2=NS(=O)(=O)c3c(CNS(C)(=O)=O)csc3N2)=C1O (racemic) [Example 19, rac-N-{3-[1-Cyclopropyl-4-hydroxy-5-methyl-5-(3-methyl-butyl)-2-oxo-1,2,5,6-tetrahydro-pyridin-3-yl]-1,1-dioxo-1,4-dihydro-1λ^6-thieno[2,3-e][1,2,4]thiadiazin-7-ylmethyl}-methanesulfonamide] | 100 to 1000 nM |  |
| CS(=O)(=O)NCc1csc2c1S(=O)(=O)N=C(C1=C(O)[C@@H]3[C@@H]4CC[C@@H](C4)[C@@H]3N(Cc3ccc(F)cc3Cl)C1=O)N2 [Example 42, N-{3-[(1S,2S,7R,8R)-3-(2-Chloro-4-fluoro-benzyl)-6-hydroxy-4-oxo-3-aza-tricyclo[6.2.1.0^2,7]undec-5-en-5-yl]-1,1-dioxo-1,4-dihydro-1λ^6-thieno[2,3-e][1,2,4]thiadiazin-7-ylmethyl}-methanesulfonamide] | 100 to 1000 nM |  |
| CS(=O)(=O)NCc1csc2c1S(=O)(=O)N=C(C1=C(O)[C@@H]3[C@H]4CC[C@H](C4)[C@@H]3N(CC3CCCCC3)C1=O)N2 [Example 101, N-[3-((1R,2S,7R,8S)-3-Cyclohexylmethyl-6-hydroxy-4-oxo-3-aza-tricyclo[6.2.1.0^2,7]undec-5-en-5-yl)-1,1-dioxo-1,4-dihydro-1λ^6-thieno[2,3-e][1,2,4]thiadiazin-7-ylmethyl]-methanesulfonamide] | 20 to 100 nM |  |
| CC(C)(C)CCN1C(=O)C(C2=NS(=O)(=O)c3c(CNS(C)(=O)=O)csc3N2)=C(O)C2C3C=CC(C3)C21 (racemic) [Example 65, (rac-di-exo)-N-{3-[3-(3,3-Dimethyl-butyl)-6-hydroxy-4-oxo-3-aza-tricyclo[6.2.1.0^2,7]undeca-5,9-dien-5-yl]-1,1-dioxo-1,4-dihydro-1λ^6-thieno[2,3-e][1,2,4]thiadiazin-7-ylmethyl}-methanesulfonamide] | ≤ 5 nM |  |
| CS(=O)(=O)NCc1csc2c1S(=O)(=O)N=C(C1=C(O)C3C4CCC(O4)C3N(Cc3ccc(F)cc3)C1=O)N2 (racemic) [Example 90, (rac-di-exo)-N-{3-[3-(4-Fluoro-benzyl)-6-hydroxy-4-oxo-11-oxa-3-aza-tricyclo[6.2.1.0^2,7]undec-5-en-5-yl]-1,1-dioxo-1,4-dihydro-1λ^6-thieno[2,3-e][1,2,4]thiadiazin-7-ylmethyl}-methanesulfonamide] | 5 to 20 nM |  |
| CC(C)CCC1(C)CN(c2ccccc2)C(=O)C(C2=NS(=O)(=O)c3c(CNS(C)(=O)=O)csc3N2)=C1O (stereo not drawn) [Example 31, N-{3-[4-Hydroxy-5-methyl-5-(3-methyl-butyl)-2-oxo-1-phenyl-1,2,5,6-tetrahydro-pyridin-3-yl]-1,1-dioxo-1,4-dihydro-1λ^6-thieno[2,3-e][1,2,4]thiadiazin-7-ylmethyl}-methanesulfonamide] | > 1000 nM |  |
| CS(=O)(=O)NCc1csc2c1S(=O)(=O)N=C(C1=C(O)C3CCCCCC3N(Cc3ccccc3)C1=O)N2 (racemic) [Example 136, (rac-cis)-N-[3-(1-Benzyl-4-hydroxy-2-oxo-2,4a,5,6,7,8,9,9a-octahydro-1H-cyclohepta[b]pyridin-3-yl)-1,1-dioxo-1,4-dihydro-1λ^6-thieno[2,3-e][1,2,4]thiadiazin-7-ylmethyl]-methanesulfonamide] | 20 to 100 nM |  |
| CC(C)(C)CCN1C(=O)C(C2=NS(=O)(=O)c3c(CNS(C)(=O)=O)csc3N2)=C(O)[C@@H]2C3CCC(CC3)[C@@H]21 [Example 93, N-{3-[(2S,7R)-3-(3,3-Dimethyl-butyl)-6-hydroxy-4-oxo-3-aza-tricyclo[6.2.2.0^2,7]dodec-5-en-5-yl]-1,1-dioxo-1,4-dihydro-1λ^6-thieno[2,3-e][1,2,4]thiadiazin-7-ylmethyl}-methanesulfonamide] | ≤ 5 nM |  |
| CS(=O)(=O)NCc1csc2c1S(=O)(=O)N=C(C1=C(O)[C@@H]3[C@@H]4CC[C@@H](C4)[C@@H]3N(CCC3CC3)C1=O)N2 [Example 107, N-{3-[(1S,2S,7R,8R)-3-(2-Cyclopropyl-ethyl)-6-hydroxy-4-oxo-3-aza-tricyclo[6.2.1.0^2,7]undec-5-en-5-yl]-1,1-dioxo-1,4-dihydro-1λ^6-thieno[2,3-e][1,2,4]thiadiazin-7-ylmethyl}-methanesulfonamide] | 20 to 100 nM |  |
| CC(C)CCN1C(=O)C(C2=NS(=O)(=O)c3c(CNS(C)(=O)=O)csc3N2)=C(O)C2C3C=CC(C3)C21 (racemic) [Example 66, (rac-di-exo)-N-{3-[6-Hydroxy-3-(3-methyl-butyl)-4-oxo-3-aza-tricyclo[6.2.1.0^2,7]undeca-5,9-dien-5-yl]-1,1-dioxo-1,4-dihydro-1λ^6-thieno[2,3-e][1,2,4]thiadiazin-7-ylmethyl}-methanesulfonamide] | 5 to 20 nM |  |
| COc1cc(CN2C(=O)C(C3=NS(=O)(=O)c4c(CNS(C)(=O)=O)csc4N3)=C(O)[C@@H]3[C@@H]4CC[C@@H](C4)[C@@H]32)ccc1F [Example 43, N-{3-[(1S,2S,7R,8R)-3-(4-Fluoro-3-methoxy-benzyl)-6-hydroxy-4-oxo-3-aza-tricyclo[6.2.1.0^2,7]undec-5-en-5-yl]-1,1-dioxo-1,4-dihydro-1λ^6-thieno[2,3-e][1,2,4]thiadiazin-7-ylmethyl}-methanesulfonamide] | 20 to 100 nM |  |
| CS(=O)(=O)NCc1csc2c1S(=O)(=O)N=C(C1=C(O)[C@@H]3CCC[C@@H]3N(Cc3ccc(F)cc3F)C1=O)N2 [Example 112, (4aR,7aS)-N-{3-[1-(2,4-Difluoro-benzyl)-4-hydroxy-2-oxo-2,4a,5,6,7,7a-hexahydro-1H-[1]pyrindin-3-yl]-1,1-dioxo-1,4-dihydro-1λ^6-thieno[2,3-e][1,2,4]thiadiazin-7-ylmethyl}-methanesulfonamide] | 20 to 100 nM |  |
| CS(=O)(=O)NCc1csc2c1S(=O)(=O)N=C(C1=C(O)C3CCCCC3N(Cc3ccc(F)cc3Cl)C1=O)N2 (racemic) [Example 117, (rac-cis)-N-{3-[1-(2-Chloro-4-fluoro-benzyl)-4-hydroxy-2-oxo-1,2,4a,5,6,7,8,8a-octahydro-quinolin-3-yl]-1,1-dioxo-1,4-dihydro-1λ^6-thieno[2,3-e][1,2,4]thiadiazin-7-ylmethyl}-methanesulfonamide] | 100 to 1000 nM |  |
| CC(C)CCn1nc(-c2cccs2)c(O)c(C2=NS(=O)(=O)c3c(CNS(C)(=O)=O)csc3N2)c1=O [Example 28, N-{3-[5-Hydroxy-2-(3-methyl-butyl)-3-oxo-6-thiophen-2-yl-2,3-dihydro-pyridazin-4-yl]-1,1-dioxo-1,4-dihydro-1λ^6-thieno[2,3-e][1,2,4]thiadiazin-7-ylmethyl}-methanesulfonamide] | 100 to 1000 nM |  |
